# Reference: patent US11633392B2 (priority 2016, dated 2023)
# Marks after values point to notes of the source that are not given here.
# What was measured:
# [1] = tested on: olfactory bulbectomized (OBX) rat; experiment: Hyperemotional reaction inhibition test using olfactory bulbectomized (OBX) rat; assay type: in vivo; details: for hyperemotional reactions of the OBX rats compared with the solvent administration group: maintained until day 14
# Source text: Hyperemotional Reaction Inhibition Test Using Olfactory Bulbectomized (OBX) Rat
# According to the method of Saitoh et al. (Saitoh A, Yamada M, Yamada M, Takahashi K, Yamaguchi K, Murasawa H, Nakatani A, Tatsumi Y, Hirose N, and Kamei J: Antidepressant-like effects of the delta-opioid receptor agonist SNC80 ((+)-4-[(alphaR)-alpha-[(2S,5R)-2,5-dimethyl-4-(2-propenyl)-1-piperazinyl]-(3-methoxyphenyl)methyl]-N,N-diethylbenzamide) in an olfactory bulbectomized rat model, Brain Res., 2008, 1208:160-169), OBX rats were prepared by extracting the rat olfactory bulbs, and then breeding the rats in an isolated circumstance. Hyperemotional reaction was evaluated on the day 14 after the surgical operation and before the division into groups, and 2 hours after the administration on the days 1, 4, 7, 10, and 14 of the administration period according to the hyperemotional reaction evaluation criteria prepared by Gomita et al. (Gomita et al., Behavioral pharmacological and electroencephalographical studies of 7-chloro-1-methyl-5-phenyl-1H-1,5-benzodiazepine-2,4-(3H,5H:)-dione (Clobazam), Folia Pharmacologica Japonica, 82, 267 (1983)). The drug was subcutaneously administered once a day continuously over 14 days. As a positive control drug, fluoxetine, which is a selective serotonin reuptake inhibitor (SSRI), was used. As the solvent, a 1% cyclodextrin (CD) was used.
# human opioid κ receptor = biological target: T1, human opioid κ receptor (Homo sapiens, UniProt P41145); experiment: Opioid receptor function test (Lance Ultra cAMP Kit), κ receptor; assay type: cell-based; details: maximum reaction not reached; maximum concentration 10 μM; U-69593 = 100%
# T1 construct: host or cells: CHO cells
# T1 sequence (P41145 whole entry): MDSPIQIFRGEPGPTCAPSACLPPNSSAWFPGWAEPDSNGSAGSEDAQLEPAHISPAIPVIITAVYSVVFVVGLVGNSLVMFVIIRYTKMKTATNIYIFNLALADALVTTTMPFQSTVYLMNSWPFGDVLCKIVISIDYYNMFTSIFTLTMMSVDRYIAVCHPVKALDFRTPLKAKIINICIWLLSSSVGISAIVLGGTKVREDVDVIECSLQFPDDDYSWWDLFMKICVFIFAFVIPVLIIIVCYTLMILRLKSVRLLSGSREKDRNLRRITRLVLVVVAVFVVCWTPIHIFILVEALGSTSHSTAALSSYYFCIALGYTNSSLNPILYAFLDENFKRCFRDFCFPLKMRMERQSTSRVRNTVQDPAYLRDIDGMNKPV
# Method: Opioid Receptor Function Test
# The functional activities of the compounds provided by the present invention on the μ, δ, and κ opioid receptors were investigated.
# The test was performed by using Lance Ultra cAMP Kit (PerkinElmer) according to a method predetermined for the kit. In the evaluation of the agonistic activity, CHO cells expressing each of the human opioid receptors (δ, μ, and κ, accession numbers and catalog numbers are mentioned below) and 10 μM of each test compound were reacted for 30 minutes in an assay buffer (1× HBSS, […], pH 7.4, […] (isobutylmethylxanthine), 7.5% BSA) in the presence of forskolin. Subsequently, the cAMP detection reagent included in the kit was added, and 1 hour afterward, time-resolved fluorescence measurement was performed by using the EnVision plate reader (PerkinElmer). The test compounds and the control drugs (δ: SNC80, μ: DAMGO, κ: U-69593) were evaluated in a concentration range of 10^−12 to 10^−5 M, a dose-response curve of each test compound was obtained from the fluorescence values at 665 nm, and EC50 value and the Emax value were calculated. The Emax value was calculated as a ratio of the maximum reaction of the test compound to the maximum reaction of each control drug, which is taken as 100%.
# • δ: Catalog No. CT4607, Accession No. NM_000911.2 • μ: Catalog No. CT4605, Accession No. NM_000914 • κ: Catalog No. CT4606, Accession No. NM_000912 (ChanTest Corporation)
# C57BL/6N male mice = experiment: Mouse elevated plus maze test; assay type: in vivo; details: subcutaneous, 1 mg/kg, 30 minutes before test (FIG. 2)
# Method: Mouse Elevated Plus Maze Test
# For the test, 5 to 6 weeks old C57BL/6N male mice were used. On a plus maze apparatus consisting of a wall-less running route (open arm, width 6 cm, length 30 cm) and a running route with a wall (closed arm, width 6 cm, length 30 cm, height of wall 15 cm), and having a height of 40 cm, a mouse was put so as to be directed to the running route with a wall, and allowed to spontaneously enter into the plus maze. Each test substance was dissolved in saline or 0.005 N HCl in saline, and subcutaneously administered on the back 30 minutes before the start of the test. At the time of the start of the test, video recording with a video camera was started, the time at which the mouse entered into the plus maze is considered to be the start of the test, and exploratory behavior was recorded for 5 minutes. On the basis of the video image, staying times in the running routes were determined, and wall-less running route staying time ratio (%) was calculated.
# ICR male mice = experiment: Reserpine-induced Parkinson's disease model mouse; assay type: in vivo; details: reserpine-treated mice, 10 mg/kg s.c.
# Method: Reserpine-Induced Parkinson's Disease Model Mouse
# ICR male mice (5 weeks old, Japan SLC) were obtained, and used after an acclimation period (5 to 12 days).
# PD model was prepared with reference to the report of Hille et al. (Exp. Neurol., 2001, 172:189). It was prepared by intraperitoneally administering reserpine (5 mg/kg) 18 to 24 hours before the start of the test. The test was performed by subcutaneously administering a test compound to each mouse on the day of the test, immediately putting the mouse into a cage for monitoring locomotor activity, and measuring the migration distance over 60 minutes.
compound,measurement,setting,value
"O=C(c1cccc(=O)[nH]1)N1C[C@H]2C[C@@]34CC[C@@H]1[C@@H]2[C@@]31CCN(CC2CC2)[C@@H]4Cc2ccc(O)cc21 [Example 7, 6-((1S,3aR,5aS,6R,11bR,11cS)-14-(cyclopropylmethyl)-10-hydroxy-2,3,3a,4,5,6,7,11c-octahydro-1H-6,11b-(epiminoethano)-1,5a-methanonaphtho[1,2-e]indole-3-carbonyl)pyridin-2(1H)-one]",hyperemotional reactions of the OBX rats compared with the solvent administration group,"[1]; 0.1 mg/kg s.c. once a day, from the day 4 of the administration period",significantly reduced
same,hyperemotional reactions of the OBX rats relative to sham surgery group,"[1]; 0.1 mg/kg s.c. once a day, on the day 7 of the administration period",restored the condition even to a level comparable to that of the rats of the sham surgery group
same,hyperemotional reactions of the OBX rats compared with the solvent administration group,"[1]; 1 mg/kg s.c. once a day, from the day 1 of the administration period",significantly reduced
same,hyperemotional reactions of the OBX rats relative to sham surgery group,"[1]; 1 mg/kg s.c. once a day, on the day 4 of the administration period",restored the condition even to a level comparable to that of the rats of the sham surgery group
same,"κ receptor reaction rate at the maximum concentration (reference value, marked *)",human opioid κ receptor,−0.9* %
same,wall-less running route staying time ratio,C57BL/6N male mice,significantly increased
same,exploratory behavior,ICR male mice; 60 minutes,significantly increased
same,standing up behavior,ICR male mice; not significant (P=0.16),tendency of increase
